Results as given in publication PMC3566143, “Pantothenamides Are Potent, On-Target Inhibitors of Plasmodium falciparum Growth When Serum Pantetheinase Is Inactivated” (PLoS ONE, 2013).
Where two headings read alike, the source gives them in different places.

Tested on: erythrocytic stage P. falciparum parasites (strain 3D7)
Assay: SYBR Green I-based in vitro growth assay (96 h)
Format: cell-based, Plasmodium falciparum
Details: for IC50: Plasmodium falciparum, 96 h
Protocol: Erythrocytic stage P. falciparum parasites (strain 3D7) were maintained within human erythrocytes in continuous culture essentially as described previously, [25]. P. falciparum-infected erythrocytes were routinely cultured in RPMI 1640 medium supplemented with 25 mM HEPES, 20 mM D-glucose, 200 µM hypoxanthine, 24 mg/L gentamycin and Albumax II (0.6%, w/v), which, hereafter is referred to as Albumax-complete RPMI. For several days prior to carrying out the assays testing the effect of compounds on the growth of P. falciparum in medium supplemented with human serum (instead of Albumax II), the parasites were cultured in the same medium mentioned above, except that human serum (10%, v/v, pooled from different blood donors) was used rather than Albumax II. This medium is hereafter referred to as human serum-complete RPMI.
The in vitro antiplasmodial activity of test compounds was determined using the malaria SYBR Green I-based fluorescence assay described by Smilkstein et al., with minor modifications. Briefly, P. falciparum-infected erythrocytes were incubated in culture medium containing two-fold dilutions of the test compounds in 96-well microtiter plates. Assays were initiated with ring-stage P. falciparum-infected erythrocytes at a hematocrit and parasitemia of 1%. Wells containing infected erythrocytes in the presence of chloroquine (0.25–2 µM) served as zero growth controls and wells containing infected erythrocytes in the absence of chloroquine or test compounds served as 100% parasite growth controls. Plates were incubated at 37°C under an atmosphere of 96% nitrogen, 3% carbon dioxide and 1% oxygen for 96 h, before 100 µL from each well was mixed with 100 µL of SYBR Safe DNA gel stain (0.2 µL/mL) in 20 mM Tris, pH 7.5, 5 mM ethylenediaminetetraacetic acid (EDTA), 0.008% (w/v) saponin, 0.08% (v/v) Triton X-100, in a second 96-well microtitre plate. Fluorescence was measured using a FLUOstar OPTIMA multidetection microplate reader from BMG LABTECH with excitation and emission wavelengths of 490 and 520 nm, respectively. The 50% inhibitory concentration (IC50) of each test compound under each test condition was calculated by fitting the data to a sigmoidal curve (typically y = a/(1+ (x/x0)^b) using nonlinear least squares regression (SigmaPlot, Systat Software) and averaging the IC50 estimates from independent experiments.
The antiplasmodial activity of test compounds was assessed in media that had been subjected to different pre-incubations. “Fresh” medium refers to medium that was stored for a maximum of 48 h at 4°C, and incubated at 37°C for a maximum of 1 h, prior to use. “Aged” medium refers to medium that was stored for a minimum of one week at 4°C and incubated intermittently at 37°C, or medium incubated continuously at 37°C for 40 h soon after preparation. As indicated at the relevant positions within the “Results” section, for some experiments the fresh medium used was, more specifically, medium used immediately following preparation, and the aged medium used was, more specifically, medium that was incubated at 37°C for 40 h immediately prior to use.

## CC(C)CNC(=O)CCNC(=O)[C@H](O)C(C)(C)CO [Compound 12]
3D7, 96 h, fresh Albumax-complete RPMI, 1 µM pantothenate, read-out: IC50 against P. falciparum, fresh medium, 1 μM pantothenate
  IC50: 133 ± 12 µM
3D7, aged Albumax-complete RPMI (37°C for 40 h), 1 µM pantothenate, read-out: IC50 against P. falciparum, aged medium, 1 μM pantothenate
  IC50: 1.1 ± 0.1 µM
3D7, human serum (10%, v/v) medium incubated at 37°C for 40 h, read-out: IC50 against P. falciparum in aged human serum-complete RPMI
  IC50: 22 ± 10 µM
Aged + Albumax II + 40 h at 37°C versus aged + fresh Albumax II
  increase in potency after second ageing of Albumax II-supplemented aged medium: > 65 fold
Aged Albumax-complete RPMI + 100 ng/mL recombinant human pantetheinase added at start of assay
  effect of recombinant human pantetheinase on antiplasmodial effect in aged medium: alleviated the antiplasmodial effect
Aged Albumax-complete RPMI, IC50 at 100 µM pantothenate / IC50 at 1 µM pantothenate
  fold-increase in IC50 following supplementation with 100 µM pantothenate, aged medium: 21±1 times
Aged medium + additional Albumax II (0.6%, w/v) immediately prior to assay, 200 µM
  effect on parasite growth in aged Albumax-complete RPMI with additional Albumax II: little-to-no effect on parasite growth
Aged medium, 200 µM
  effect on parasite growth at 200 µM in aged Albumax-complete RPMI: inhibits parasite growth completely
Fresh Albumax-complete RPMI, IC50 at 100 µM pantothenate / IC50 at 1 µM pantothenate
  fold-increase in IC50 following supplementation with 100 µM pantothenate, fresh medium: 1.3±0.2 times
Human serum (10%, v/v), fresh medium, up to 200 µM (highest concentration tested)
  effect on parasite growth in fresh human serum-complete RPMI: little-to-no effect on parasite growth
